Measured values as given in the supplement of paper PMC10307832.

Key:
Experiment in all cases: relative viability (nuclei count vs DMSO), 5 days (fraction); higher = more cells survive
DM3189 + Crizotinib = compound: C1CN(CCN1)C2=CC=C(C=C2)C3=CN4C(=C(C=N4)C5=CC=NC6=CC=CC=C56)N=C3 [DM3189] + C[C@@H](Oc1cc(-c2cnn(C3CCNCC3)c2)cnc1N)c1c(Cl)ccc(F)c1Cl [Crizotinib] (partner 1 µM)
Method in brief: (§1)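 Dosing by pin tool came one day after lung cancer cell lines were seeded in 1536-well plates, using either one drug or a fixed anchor-drug dose plus five library-drug doses (not always all listed) in √10 steps. After 5 days, nuclei were counted on 4× images. Relative viability is treated-well nuclei count divided by vehicle-well nuclei count, and values are medians of duplicate plates.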

DM3189 + AZD7762 = compound: C1CN(CCN1)C2=CC=C(C=C2)C3=CN4C(=C(C=N4)C5=CC=NC6=CC=CC=C56)N=C3 [DM3189] + NC(=O)Nc1cc(-c2cccc(F)c2)sc1C(=O)N[C@H]1CCCNC1 [AZD7762] (partner 0.2 µM)
Method in brief: as §1

DM3189 + Olaparib = compound: C1CN(CCN1)C2=CC=C(C=C2)C3=CN4C(=C(C=N4)C5=CC=NC6=CC=CC=C56)N=C3 [DM3189] + O=C(c1cc(Cc2n[nH]c(=O)c3ccccc23)ccc1F)N1CCN(C(=O)C2CC2)CC1 [Olaparib] (partner 8 µM)
Method in brief: as §1

DM3189 + Pictilisib = compound: C1CN(CCN1)C2=CC=C(C=C2)C3=CN4C(=C(C=N4)C5=CC=NC6=CC=CC=C56)N=C3 [DM3189] + CS(=O)(=O)N1CCN(Cc2cc3nc(-c4cccc5[nH]ncc45)nc(N4CCOCC4)c3s2)CC1 [Pictilisib] (partner 1 µM)
Method in brief: as §1

DM3189 + Trametinib = compound: C1CN(CCN1)C2=CC=C(C=C2)C3=CN4C(=C(C=N4)C5=CC=NC6=CC=CC=C56)N=C3 [DM3189] + CC(=O)Nc1cccc(-n2c(=O)n(C3CC3)c(=O)c3c(Nc4ccc(I)cc4F)n(C)c(=O)c(C)c32)c1 [Trametinib] (partner 0.02 µM)
Method in brief: as §1

In the case of LCLC-103H, the relative viability (DM3189 + Crizotinib; first compound 0.08 µM) is reported as 1.01, the relative viability (DM3189 + Crizotinib; first compound 0.253 µM) is reported as 1.01 and the relative viability (DM3189 + Crizotinib; first compound 0.8 µM) is reported as 0.963. For the same cell line, the relative viability (DM3189 + Crizotinib; first compound 2.53 µM) was 1.05, the relative viability (DM3189 + AZD7762; first compound 0.08 µM) was 0.909 and the relative viability (DM3189 + AZD7762; first compound 0.253 µM) was 0.817. It also gave a relative viability (DM3189 + AZD7762; first compound 0.8 µM) of 0.764, a relative viability (DM3189 + AZD7762; first compound 2.53 µM) of 0.818 and a relative viability (DM3189 + Olaparib; first compound 0.08 µM) of 0.78. For the same cell line, the relative viability (DM3189 + Olaparib; first compound 0.253 µM) was 0.713, the relative viability (DM3189 + Olaparib; first compound 0.8 µM) was 0.736 and the relative viability (DM3189 + Olaparib; first compound 2.53 µM) was 0.75. It also gave a relative viability (DM3189 + Pictilisib; first compound 0.08 µM) of 0.737, a relative viability (DM3189 + Pictilisib; first compound 0.253 µM) of 0.618 and a relative viability (DM3189 + Pictilisib; first compound 0.8 µM) of 0.558. It also gave a relative viability (DM3189 + Pictilisib; first compound 2.53 µM) of 0.622, a relative viability (DM3189 + Trametinib; first compound 0.08 µM) of 0.748 and a relative viability (DM3189 + Trametinib; first compound 0.253 µM) of 0.653. It also gave a relative viability (DM3189 + Trametinib; first compound 0.8 µM) of 0.685 and a relative viability (DM3189 + Trametinib; first compound 2.53 µM) of 0.681.

In the case of PC-3 [JPC-3], the relative viability (DM3189 + Crizotinib; first compound 0.08 µM) is reported as 1.05, the relative viability (DM3189 + Crizotinib; first compound 0.253 µM) is reported as 1.04 and the relative viability (DM3189 + Crizotinib; first compound 0.8 µM) is reported as 1.04. For the same cell line, the relative viability (DM3189 + Crizotinib; first compound 2.53 µM) was 1.12, the relative viability (DM3189 + AZD7762; first compound 0.08 µM) was 0.957 and the relative viability (DM3189 + AZD7762; first compound 0.253 µM) was 0.884. For the same cell line, the relative viability (DM3189 + AZD7762; first compound 0.8 µM) was 0.814, the relative viability (DM3189 + AZD7762; first compound 2.53 µM) was 0.791 and the relative viability (DM3189 + Olaparib; first compound 0.08 µM) was 1.17. It also gave a relative viability (DM3189 + Olaparib; first compound 0.253 µM) of 1.11, a relative viability (DM3189 + Olaparib; first compound 0.8 µM) of 1.08 and a relative viability (DM3189 + Olaparib; first compound 2.53 µM) of 1.05. It also gave a relative viability (DM3189 + Pictilisib; first compound 0.08 µM) of 0.871, a relative viability (DM3189 + Pictilisib; first compound 0.253 µM) of 0.71 and a relative viability (DM3189 + Pictilisib; first compound 0.8 µM) of 0.669. For the same cell line, the relative viability (DM3189 + Pictilisib; first compound 2.53 µM) was 0.75, the relative viability (DM3189 + Trametinib; first compound 0.08 µM) was 0.75 and the relative viability (DM3189 + Trametinib; first compound 0.253 µM) was 0.776. It also gave a relative viability (DM3189 + Trametinib; first compound 0.8 µM) of 0.722 and a relative viability (DM3189 + Trametinib; first compound 2.53 µM) of 0.788.

NCI-H23 showed a relative viability (DM3189 + Crizotinib; first compound 0.08 µM) of 0.545, a relative viability (DM3189 + Crizotinib; first compound 0.253 µM) of 0.491 and a relative viability (DM3189 + Crizotinib; first compound 0.8 µM) of 0.442. It also gave a relative viability (DM3189 + Crizotinib; first compound 2.53 µM) of 0.579, a relative viability (DM3189 + AZD7762; first compound 0.08 µM) of 0.231 and a relative viability (DM3189 + AZD7762; first compound 0.253 µM) of 0.237. It also gave a relative viability (DM3189 + AZD7762; first compound 0.8 µM) of 0.128, a relative viability (DM3189 + AZD7762; first compound 2.53 µM) of 0.265 and a relative viability (DM3189 + Olaparib; first compound 0.08 µM) of 0.253. It also gave a relative viability (DM3189 + Olaparib; first compound 0.253 µM) of 0.305, a relative viability (DM3189 + Olaparib; first compound 0.8 µM) of 0.233 and a relative viability (DM3189 + Olaparib; first compound 2.53 µM) of 0.294. It also gave a relative viability (DM3189 + Pictilisib; first compound 0.08 µM) of 0.637, a relative viability (DM3189 + Pictilisib; first compound 0.253 µM) of 0.462 and a relative viability (DM3189 + Pictilisib; first compound 0.8 µM) of 0.385. The relative viability (DM3189 + Pictilisib; first compound 2.53 µM) was 0.442, the relative viability (DM3189 + Trametinib; first compound 0.08 µM) was 0.409 and the relative viability (DM3189 + Trametinib; first compound 0.253 µM) was 0.352. It also gave a relative viability (DM3189 + Trametinib; first compound 0.8 µM) of 0.324 and a relative viability (DM3189 + Trametinib; first compound 2.53 µM) of 0.442.

NCI-H1915 gave a relative viability (DM3189 + Crizotinib; first compound 0.08 µM) of 0.879, a relative viability (DM3189 + Crizotinib; first compound 0.253 µM) of 0.79 and a relative viability (DM3189 + Crizotinib; first compound 0.8 µM) of 0.808. For the same cell line, the relative viability (DM3189 + Crizotinib; first compound 2.53 µM) was 0.783, the relative viability (DM3189 + AZD7762; first compound 0.08 µM) was 0.708 and the relative viability (DM3189 + AZD7762; first compound 0.253 µM) was 0.639. The relative viability (DM3189 + AZD7762; first compound 0.8 µM) was 0.521, the relative viability (DM3189 + AZD7762; first compound 2.53 µM) was 0.637 and the relative viability (DM3189 + Olaparib; first compound 0.08 µM) was 0.264. It also gave a relative viability (DM3189 + Olaparib; first compound 0.253 µM) of 0.253, a relative viability (DM3189 + Olaparib; first compound 0.8 µM) of 0.222 and a relative viability (DM3189 + Olaparib; first compound 2.53 µM) of 0.231. For the same cell line, the relative viability (DM3189 + Pictilisib; first compound 0.08 µM) was 0.974, the relative viability (DM3189 + Pictilisib; first compound 0.253 µM) was 0.915 and the relative viability (DM3189 + Pictilisib; first compound 0.8 µM) was 0.646. It also gave a relative viability (DM3189 + Pictilisib; first compound 2.53 µM) of 0.891, a relative viability (DM3189 + Trametinib; first compound 0.08 µM) of 0.325 and a relative viability (DM3189 + Trametinib; first compound 0.253 µM) of 0.292. For the same cell line, the relative viability (DM3189 + Trametinib; first compound 0.8 µM) was 0.305 and the relative viability (DM3189 + Trametinib; first compound 2.53 µM) was 0.307.
